Experimental data from PubChem BioAssay (NCI).
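The compound was tested at five concentrations on cells cultured in 96-well plates, with a 48-hour exposure period. TGI: concentration producing complete growth inhibition.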

How the values were obtained:
Test in all cases: NCI tumour cell line growth inhibition, 48 h
A549 NSCLC = tested on: A549 NSCLC
HCT-116 colon = tested on: HCT-116 colon
NCI-H522 lung = tested on: NCI-H522 lung
NCI-H460 lung = tested on: NCI-H460 lung
UO-31 renal = tested on: UO-31 renal
MDA-MB-231 breast = tested on: MDA-MB-231 breast
HT29 colon = tested on: HT29 colon
HOP-62 NSCLC = tested on: HOP-62 NSCLC
SNB-19 CNS = tested on: SNB-19 CNS
MALME-3M melanoma = tested on: MALME-3M melanoma
786-0 renal = tested on: 786-0 renal
RXF 393 renal = tested on: RXF 393 renal
SF-539 CNS = tested on: SF-539 CNS
CAKI-1 renal = tested on: CAKI-1 renal
U251 CNS = tested on: U251 CNS
COLO 205 colon = tested on: COLO 205 colon
HCC-2998 colon = tested on: HCC-2998 colon
T-47D breast = tested on: T-47D breast
MCF7 breast = tested on: MCF7 breast

Measured: TGI

COC(=O)C1CC2(CCC1=O)Cc1ccccc1C2=O (centres undefined)
> 100 µM: all assays above
